Legend:
diuresis = test: Diuretic activity in mice; format: in vivo
Procedure: The activity is determined on mice. The ratio R of the mean values of diuresis obtained for the treated animals to the mean values for control animals are determined.

[1] = test system: retention of phenol red in the circulation; test: Uricosuric activity: retention of phenol red in the circulation of the rat; format: in vivo; conditions: 100 mg/kg per os; for % of retention (phenol red), 15 mn: 15 min after phenol red injection; for % of retention (phenol red), 30 mn: 30 min after phenol red injection; for % of retention (phenol red), 45 mn: 45 min after phenol red injection; for % of retention (phenol red), 60 mn: 60 min after phenol red injection
Procedure: This activity was determined by the ability of the compounds to cause retention of phenol red in the circulation of the rat, method described by
Scarborough h. c. and M. C. KINNEY G. R. --
The products were administered one hour before phenol red injection to batches of 5 rats of 250-280 g; anesthetized with ether, the animals received an I.V. injection of 1 cm3 of a 1% phenol red solution. Blood samplings were made 15, 30, 45 and 60 minutes after injection. The pink colour develop after addition to the plasma of an N/10 aqueous solution of sodium hydroxide.
For instance the compounds of examples 5 and 1, and benziodarone give the following results for a dosis of 100 mg/kg per os.

[2] = Acute toxicity per os in mice; conditions: mouse, in vivo, po; for LD50 at 48 h: male mice (Swiss C.D), per os, mortality after 48 hours, read-out: LD 50 per os
Procedure: The compounds were administered in the usual way to lots of 10 male mice (Swiss C.D) of average weight 20 g. Mortality was assessed after 48 hours for toxicity per os.

[3] = test system: urinary excretion and clearance of uric acid; test: Uricosuric activity in the phosphate-mannitol infused mongrel dog (renal clearance); format: in vivo
Procedure: The uricosuric activity of the compound of example 1 was further studied.
The uricosuric activity is determined by intravenous administration of a test compound to the phosphate-mannitol infused mongrel dog as a rapid injection at doses of 5 or 15 mg/kg. Renal clearance studies are compared against control experiments conducted in the same dogs. The urate clearance is calculated from the plasma and urinary concentrations. […] For example, compound of example 1 at a dose of 5 mg/kg i.v. increased urate excretion as a percentage of glomerular filtration rate from a value of 27% up to 40% and at a dose of 15 mg/kg i.v. increased it from 28% up to 74%.

Row | SMILES | ratio R of mean diuresis of treated animals to control animals (diuresis; 100 mg/kg P.O.) | % of retention (phenol red), 15 mn [1] | % of retention (phenol red), 30 mn [1] | % of retention (phenol red), 45 mn [1] | % of retention (phenol red), 60 mn [1] | LD50 at 48 h [2] | urate excretion as a percentage of glomerular filtration rate ([3]; 5 mg/kg i.v., increased from a value of 27%) | urate excretion as a percentage of glomerular filtration rate ([3]; 15 mg/kg i.v., increased from 28%) | ratio R of mean diuresis of treated animals to control animals (diuresis; 20 mg/kg P.O.) | LD50 ([2]; P.O., ethacrynic acid, given in the diuretic activity section, read-out: DL 50 P.O.)
1 | O=C(O)COc1ccc(C(O)c2cccs2)c(Cl)c1Cl (centres unmarked) [Example 1, 2,3-dichloro-4-(2-thienyl-hydroxy-methyl)-phenoxy-acetic acid] | 1.6 | 51% | 44% | 31% | 28% | 1000 mg/kg | 40% | 74% |  | 
2 | O=C(O)COc1c(Br)cc(C(O)c2cccs2)cc1Br (centres unmarked) [Example 5, 2,6-dibromo-4-(2-thienyl-hydroxy-methyl)-phenoxy-acetic acid] |  | 68% | 123% | 105% | 58% | > 1000 mg/kg |  |  |  | 
3 | CCc1oc2ccccc2c1C(=O)c1cc(I)c(O)c(I)c1 [benziodarone, reference compound] |  | 37% | 50% | 53% | 18% | 1400 mg/kg |  |  |  | 
4 | C=C(CC)C(=O)c1ccc(OCC(=O)O)c(Cl)c1Cl [ethacrynic acid, reference compound] |  |  |  |  |  |  |  |  | 2.4 | 600 mg/kg
